From patent publication US9987296B2, “Compositions including anthocyanin or anthocyanidin for the prevention or treatment of Articular cartilage-associated conditions” (priority 2008, dated 2018)
“Also recorded” adds a separate entry of the source.

How the values were obtained:
[1] = system: IGF-1; assay: IGF-1 gene expression in human synovial explants; type: cell-based; conditions: for IGF-1 gene expression and production: synovial explants, together with glucose, overall conclusion
Experimental: Synovial explants (N=6) were harvested from human donors undergoing either uni-compartmental or total knee replacement. In all but the first experiment, the specimens were trimmed of extraneous adipose tissue and washed in low glucose DMEM (1 g/l). The specimens in the first experiment were not trimmed of excess adipose tissue and were washed in high-glucose DMEM (4.5 g/L).
In the first experiment (n=2), the specimens were cultured for 48 hours in 0.1% calf serum and either high- or low-glucose DMEM. In the second tow experiments (n=4), the specimens were cultured for 48 hours in serum-free ITS (Insulin, Transferrin, Selenium) media diluted with either high- or low-glucose DMEM. IGF-1 gene expression. Briefly, total RNA was extracted from synovial tissue using RNeasy Total RNA Kit (Qiagen, Inc., Santa Clarita, Calif.). Real-time quantitative RT-PCR was done using Taqman RT-PCR reagents (Applied Biosystems, Foster City, Calif.).
(§1) Expression of IGF-1 was normalized to that of the housekeeping gene GAPDH. IGF-1 ELISA. Human IGF-1 protein secretion into the culture media was measured by ELISA (RD Systems, Minneapolis, Minn.). Synovial culture media was centrifuged to remove any particulates. Controls and samples were added to ELISA wells which were pre-coated with a monoclonal antibody specific for IGF-1. Any IGF-1 present would be expected to be bound by the immobilized antibody. After washing away any unbound substances, an enzyme-linked polyclonal antibody specific for IGF-1 was added to the wells. Following a wash to remove any unbound antibody-enzyme reagent. a substrate solution was added to the wells. The medial developed a color intensity in proportion to the amount of IGF-1 bound in the initial step. Optical density of each well was determined by using a microplate reader set to 450 nm. IGF-1 activity obtained by serial dilution of known protein concentrations.
(§2) Synovial explants (n=6) were harvested from human donors undergoing total knee replacement. The specimens were trimmed of extraneous adipose tissue. In the two experiments, the synovial specimens were washed in low-glucose DMEM (1 g/L) for a few hours and then placed in the assigned treatment groups. In subsequent experiments the synovial specimens were washed in low-glucoses DMEM for 24 hours before treatment.
(§3) In all experiments (n=4), the specimens were cultured for 48 hours in serum-free ITS (Insulin, Transferrin, Selenium) media diluted with either high- or low-glucose DMEM. In addition, various anthocyanins were added to both the high- and low-glucose groups. Low-glucose alone acted as a control group. After the two experiments, the level of media was adjusted relative to the weight of the tissue.
Briefly, total RNA was extracted from synovial tissue using RNeasy Total RNA Kit (Qiagen Inc., Santa Clarita, Calif.). Real-time quantitative RT-PCR was done using ‘ragman RT-PCR. reagents (Applied Biosystems, Foster City, Calif.). Expression of IGF-1 was normalized to that of the housekeeping gene GAPDH. The results of IGF-1 gene expression are only presented if detectable levels of low glucose alone were present and able to serve as a control group for relative-fold change in expression.

[2] = system: IGF-1; assay: IGF-1 ELISA of culture media of human synovial explants; type: cell-based; conditions: for IGF-1 protein release in media: high vs low glucose
Experimental: as §2, §3
as §1, with “Human IGF-1” for “Expression of IGF-1 was normalized to that of the housekeeping gene GAPDH. IGF-1 ELISA. Human IGF-1”, “by ELISA (R & D Systems, Minneapolis,” for “by ELISA (RD Systems, Minneapolis,”, “unbound antibody-enzyme reagent, a substrate” for “unbound antibody-enzyme reagent. a substrate”, “wells. The media developed a” for “wells. The medial developed a”, “nm. IGF-1 concentration in the sample was calculated by a standardized curve of IGF-I activity obtained” for “nm. IGF-1 activity obtained”

[3] = FIG. 22, volume titrated to tissue weight, in high glucose
[4] = increasing glucose concentration, synovial tissue

## Oc1cc(O)c2cc(O)c(-c3ccc(O)c(O)c3)[o+]c2c1 [Cyanidin chloride]
[1]; FIG. 27, in the presence of high glucose
  IGF-1 gene expression relative to low glucose alone: highest expression levels
[1]
  IGF-1 gene expression and production: elevate IGF-1 gene expression and production
[2]; FIG. 21, 7 ml of media regardless of sample weight, with High Glucose, listed as Cyanidin
  IGF-1 protein levels in media: highest IGF-1 protein levels
[2]; FIG. 21, 7 ml of media regardless of sample weight, with High Glucose, listed as cyanidin
  IGF-1 protein levels in media: highest levels of IGF-1 in media
[2]; FIG. 22, volume titrated to tissue weight, combined with low glucose, listed as Cyanidin
  IGF-1 protein levels in media: greatest effect
[2]; FIG. 22, volume titrated to tissue weight, combined with low glucose, listed as cyanidin
  IGF-1 protein levels in media: greatest production of IGF-1 protein levels
[2]; [3]
  IGF-1 protein levels in media: inhibitory
[2]; FIG. 26, lower anthocyanin concentration (5 mM), in the presence of low glucose
  level of IGF-1 protein in media: highest level of IGF-1 protein

## OC[C@H]1O[C@@H](Oc2cc3c(O)cc(O)cc3[o+]c2-c2ccc(O)c(O)c2)[C@H](O)[C@@H](O)[C@@H]1O.[Cl-] [Kuromanin chloride]
[1]; FIG. 24, in the presence of high glucose
  IGF-1 gene expression: inhibitory
[1]; FIG. 24, in the presence of low glucose
  IGF-1 gene expression relative to low glucose alone: 3 fold
[1]
  IGF-1 gene expression and production: elevate IGF-1 gene expression and production
[2]; FIG. 22, volume titrated to tissue weight, combined with low glucose, listed as Kuromanin
  IGF-1 protein levels in media: greatest effect
[2]; FIG. 22, volume titrated to tissue weight, combined with low glucose, listed as kuromanin
  IGF-1 protein levels in media: greatest production of IGF-1 protein levels
[2]; [3]
  IGF-1 protein levels in media: inhibitory

## O=C[C@H](O)[C@@H](O)[C@H](O)[C@H](O)CO [glucose]
[1]; FIG. 24, High glucose alone
  IGF-1 gene expression relative to low glucose alone: over 4 fold
[1]; FIG. 27, High Glucose alone, grossly inflamed sample (RH)
  IGF-1 gene expression relative to low glucose alone: highest expression levels
[1]; FIG. 28, High Glucose alone
  increase in IGF-1 gene expression compared to low glucose alone: 12 fold
[1]; high (4.5 g/L) vs low (1 g/L) glucose, 48 hours, three donors
  increase of IGF-1 gene expression: up to 5 fold
[1]; [4]
  IGF-1 gene expression: increase both IGF-1 gene expression and IGF-1 release; also recorded: significantly increase; also recorded: consistently increased IGF-1 gene expression
[2]; FIG. 23, volume titrated to tissue weight, High Glucose alone (highest level)
  level of IGF-1 protein in media: above 2.00 ng/ml
[2]; FIG. 25, volume titrated to tissue weight, High Glucose alone
  level of IGF-1 protein in media: highest level of IGF-1 protein
[2]; FIG. 26, High Glucose alone
  level of IGF-1 protein in media: highest level of IGF-1 protein
[2]; High Glucose alone, across the experiments of Example 7
  IGF-I protein expression: most consistent increase in IGF-I protein expression
[2]; high (4.5 g/L) vs low (1 g/L) glucose, 48 hours, 6 donors
  IGF-1 levels in media, on average: more than doubled
[2]; high glucose, donor undergoing unicompartmental arthroplasty
  increase of IGF-1 in media, tissue that responded the most: 5 ×
[2]; four donors
  IGF-1 protein release in media: significant response
[2]; two donors
  IGF-1 protein release in media: no effect on IGF-1 protein release in media
[2]; [4]
  IGF-1 secretion: increase both IGF-1 gene expression and IGF-1 release; also recorded: increased IGF-1 secretion in synovial tissue, but in a donor dependent fashion
